{"source": "patent US20100120703A1", "about": "“COMPOSITIONS AND METHODS FOR TREATING CANCER” (priority 2007, published 2010)", "key": {"[1]": {"system": "Sprague Dawley (SD) rats", "experiment": "DEN/CCl4-induced hepatoma in rats, progression stage: liver observation and weight", "format": "in vivo, rat", "conditions": "15 mg/kg oral daily for 24 weeks", "text": "The effect of SIN on progression stage of cancer development was studied. FIG. 20 summarized the protocol applied to rats. The amounts of rats and grouping method were all the same as in the promotion stage experiment.\nRats in the negative control group received weekly intraperitoneal (i.p.) injection of DMSO for the first 2 weeks and then Corn Oil for 28 weeks. Rats in the positive control and SIN-treatment groups both received weekly intraperitoneal (i.p.) injection of DEN for the first 2 weeks and then CCl4 for 28 weeks. Two weeks of fasting were inserted between DEN treatment and CCl4 treatment. Starting from 33rd week, negative and positive control groups received oral administration of water once a day. Sinigrin with dosage 15 mg/kg was administered orally to the SIN-treatment group daily for 24 weeks. After treatment, the rats were killed. Blood and liver were collected and processed as described in the foregoing examples."}, "[2]": {"system": "p53, Mdm2, p21, PCNA, Bax and Bcl-2", "experiment": "Gene expression assay (RT-PCR, Western blot) in rat liver, promotion stage", "format": "in vivo", "protocol": "Expression patterns, at both mRNA and protein levels, of selected genes related to apoptosis and tumors were examined to investigate the mechanism by which sinigrin prevent tumor occurrence.\nRNA was extracted from 300 μg of rat liver and was measured as described in foregoing examples Three micrograms of total RNA, 1 μl of an oligo dT primer and certain volume of RNase-Free H2O were mixed into a total volume of 12 μl. The mixture was incubated at 70° C. for 10 minutes and immediately chilled on ice. Four microliters of 5× First Stand Buffer, 2 μl of 0.1M DTT, 1 μl of 10 mM dNTP mix, and 1 μl of SuperScript II were added to each tube and mixed. The tubes were incubated at 42° C. for 50 minutes followed by 70° C. for 15 minutes before chilling on ice. The cDNA was then ready for PCR amplification.\nThe PCR reactions were performed in a final volume of 20 μl in a Gene Amp® PCR system. The PCR reaction mix contained 1 μl of cDNA synthesized previously, 2 μl 10×PCR Buffer, 0.4 μl 10 mM dNTP mix, 1.2 μl 25 mM MgCl2, 1 μl 10 mM primer mix, 0.2 μl recombinant Taq polymerase, and 14.2 μl autoclaved ddH2O.\nFor synthesis of β-actin gene as the internal control and Mdm2 gene, the PCR mixture was incubated at 94° C. for 5 minutes followed by 30 cycles of amplification. Each cycle consisted of 45 seconds of denaturation at 94° C., 45 seconds of annealing at 55° C. and 30 seconds of extension at 72° C. After all cycles were completed, a final extension step at 72° C. for 10 minutes was performed. The PCR products were ready for gel electrophoresis.\nFor synthesis of p53, the number of cycle was enhanced to 35, the annealing temperature was enhanced to 58° C., and the extension time was extended to 1.5 minutes, respectively.\nThe intensity of the PCR products was analyzed by the software Image J. The band intensity of the β-actin gene was measured as an internal control. The ratio of the band intensities of the target gene to the β-actin gene was used to compare the mRNA level of each gene between different treatment groups.\nThree hundred micrograms of each liver sample were homogenized in the Solution C at 1 g/ml using a glass homogenizer on ice. The homogenate was transferred to a microcentrifuge tube and centrifuged at 13,000 rpm for 20 minutes. The supernatant was collected and equal volume of 2× sample loading dye was added to each sample. The samples were stored at −20° C. The protein was used for immunodetection of the expression level of Bax, Bcl-2, PCNA and p21.\nThree hundreds micrograms of each liver sample were homogenized in Solution A at 1 g/ml using the glass homogenizer on ice. The homogenate was transferred into a microcentrifuge tube and centrifuged at 3,000 rpm for 5 minutes to spin down the unbroken tissue. The supernatant was collected and incubated on ice for 5 minutes and then centrifuged at 5,000 rpm for 5 minutes. The supernatant was discarded and the pellet was lysed by 100 μl Solution B. The lysing process lasted for 20 minutes on ice. After incubation, the solution was centrifuged at 12,000 rpm for 15 seconds to spin down the cell debris. The supernatant was collected and equal volume of 2× sample loading dye was added to each sample. The samples were ready for immunodetection of the expression level of p53 and mdm2.\nThe Mini-PROTEAN II electrophoresis cell (Bio-Rad) was used for sodium dodecyl sulfate poly acrylamide gel electrophoreses (SDS-PAGE). The gel mold was assembled according to the protocol. About 3 ml water was poured into the set mold to test for leakage. After discarding the water, resolving gel solution was prepared according to the established protocol. A 10% acrylamide gel was used for the separation. The resolving gel was poured into the mold at a proper volume (about ⅔ full). After the gel solution was poured into the mold, a thin layer of distilled water was poured on the gel solution to ensure the surface of the gel was smooth. The gel was allowed to polymerize for 30 minutes. […]"}}, "data": [{"smiles": "C=CC/C(=N/OS(=O)(=O)[O-])S[C@@H]1OC(CO)[C@@H](O)C(O)C1O.[K+]", "note": "(some centres unmarked) [SIN, sinigrin]", "values": [{"measurement": "percentage of liver weight and liver weight index vs negative group", "setting": "[1]", "value": "only slightly higher"}, {"measurement": "visible tumors on liver (direct observation)", "setting": "[1]", "value": "few visible tumors"}, {"measurement": "Mdm2 mRNA expression", "setting": "[2]; RT-PCR", "value": "decreased back to levels near the negative control"}, {"measurement": "p53 mRNA expression", "setting": "[2]; RT-PCR", "value": "decreased back to levels near the negative control"}, {"measurement": "Bax protein expression (decreased in positive group)", "setting": "[2]; Western blot", "value": "reversed"}, {"measurement": "Bcl-2 protein expression (increased in positive group)", "setting": "[2]; Western blot", "value": "reversed"}, {"measurement": "Mdm2 protein expression (increase in positive control)", "setting": "[2]; Western blot", "value": "partially reversed"}, {"measurement": "PCNA protein expression (increased in positive group)", "setting": "[2]; Western blot", "value": "reversed"}, {"measurement": "p21 protein expression", "setting": "[2]; Western blot", "value": "much higher than that of the negative control and the positive control"}, {"measurement": "total p53 protein level", "setting": "[2]; Western blot", "value": "significantly increased"}, {"measurement": "wild type p53 protein level", "setting": "[2]; Western blot", "value": "restored its expression to a level even higher than the negative control"}]}]}
